The values that follow come from publication PMC8279492, “Quinolinonyl Non-Diketo Acid Derivatives as Inhibitors of HIV-1 Ribonuclease H and Polymerase Functions of Reverse Transcriptase” (Journal of Medicinal Chemistry, 2021).

As a reminder, the CC50 is the concentration giving 50% cytotoxicity. By IC50 is commonly meant the concentration that gives 50% inhibition. For orientation: EC50 means the midpoint of the concentration-response curve.

Data set [1] is described as follows: Compounds' toxicity, CellTiter 96 AQueous One Solution Cell Proliferation Assay. It counts as cell-based. The following applies: human, HeLa-CD4-LTR-β-gal cells. How it is done:
(§1) HIV-1 replication was monitored using HeLa-CD4-LTR-β-gal reporter cells as previously described.[69] Briefly, β-galactosidase activity was monitored 24 h post infection using a replication-competent HIV produced in-house (H9-laï coculture) and a serial dilution of molecules or an equivalent volume of DMSO. In parallel, compounds’ toxicity was determined at 24 h in the same cell line using CellTiter 96 AQueous One Solution Cell Proliferation Assay (Promega, France).

In data set [2] the target is T1, HIV-1 RT-associated RNase H activity (Human immunodeficiency virus type 1 group M subtype B, UniProt P03366).
T1 construct: His-tagged p66/p51 HIV-1 RT group M subtype B; His; made in house; host or cells: Escherichia coli M15
In words: biochemical. It counts as biochemical. How it is done:
(11) and β-thujaplicinol (BTP) used as positive controls.
(§2) His-tagged p66/p51 HIV-1 RT group M subtype B coded in a p6HRT-prot plasmid was expressed in the Escherichia coli strain M15.[65] Heterodimeric RTs were expressed essentially and purified as described.[66]
(§3) The HIV-1 RT-associated RNase H activity was measured as described.[68] Briefly, the reaction was carried out in a black 96-well plate in a total volume of 100 μL. […] Experiments were performed in duplicate and replicated at least two times. Data were analyzed as described.[36]

Data set [3] relates to HIV-1 replication. The data set is described as follows: HIV-1 replication in HeLa-CD4-LTR-β-gal reporter cells. It counts as cell-based. How it is done:
as §1

Data set [4] addresses HIV-1 IN (Human immunodeficiency virus type 1 group M subtype B, UniProt P12497). The data set is described as follows: biochemical. How it is done:
His-tagged NL4-3 IN was expressed from a pET15b plasmid in the E. coli BL21 pLys strain. Recombinant protein was purified as previously described[67] following a batch preparation on Ni-NTA beads (Qiagen, Paris, France).
Both oligonucleotides were purchased from Integrated DNA Technologies, Inc. (Coralville, IA), and the gel was purified in-house. ST reactions were performed by adding molecules or an equivalent volume of 100% dimethyl sulfoxide (DMSO, used as the drug solvent) to a mixture of 20 nM duplex DNA substrate and 400 nM IN in 50 mM MOPS pH 7.2, 7.5 mM MgCl2, and 14 mM 2-mercaptoethanol. Mixtures were incubated at 37 °C for 2 h, and the reaction was quenched by addition of an equal volume of loading buffer [formamide containing 1% sodium dodecyl sulfate (SDS), 0.25% bromophenol blue, and xylene cyanol]. […] Dried gels were visualized using a FLA5000 (Fuji Photo Film, Tokyo, Japan). Densitometric analyses were performed using ImageQuant 5.1 software from GE Healthcare.

For data set [5], the target named is T2, HIV-1 RT-RDDP activity (Human immunodeficiency virus type 1 group M subtype B, UniProt P03366).
T2 construct: His-tagged p66/p51 HIV-1 RT group M subtype B; His; made in house; host or cells: Escherichia coli M15
In words: Polymerase assay (RNA-dependent DNA polymerase). It counts as biochemical. How it is done: as §2
The HIV-1 RT-associated RNA-dependent DNA polymerase activity was measured as described.[65] Briefly, the reaction was carried out in a black 96-well plate in a total volume of 25 μL. Serial dilutions of compounds were added to the reaction mix containing 60 mM Tris HCl buffer pH 8.1, 8 mM MgCl2, 60 mM KCl, 13 mM DTT, 2.5 mM poly(A)-oligo(dT), and […].

Data set [6] has as its target T3, W535A HIV-1 RT RNase H (Human immunodeficiency virus type 1 group M subtype B, UniProt P03366, W1134A).
T3 construct: Amino acid substitutions were introduced into the p66 HIV-1 RT subunit of a HIV-1 RT; His; made in house; host or cells: Escherichia coli M15
The data set is described as follows: RNase H assay, point-mutant W535A RT. It counts as biochemical. How it is done: (§4) An activity curve was performed for all of the enzymes (Figure S1), and a concentration was chosen in the linear dose-response range to perform the enzymatic-inhibition assays.
(§5) Amino acid substitutions were introduced into the p66 HIV-1 RT subunit of a HIV-1 RT using a QuikChange mutagenesis kit, following the manufacturer’s instructions (Agilent Technologies Inc., Santa Clara, CA).
as §3

Data set [7] concerns the target T4, R448A HIV-1 RT RNase H (Human immunodeficiency virus type 1 group M subtype B, UniProt P03366, R1047A).
T4 construct: Amino acid substitutions were introduced into the p66 HIV-1 RT subunit of a HIV-1 RT; His; made in house; host or cells: Escherichia coli M15
In words: RNase H assay, point-mutant R448A RT. In kind it is biochemical. How it is done:
as §4, §5, §3

The target in data set [8] is T5, K451A HIV-1 RT RNase H (Human immunodeficiency virus type 1 group M subtype B, UniProt P03366, K1050A).
T5 construct: Amino acid substitutions were introduced into the p66 HIV-1 RT subunit of a HIV-1 RT; His; made in house; host or cells: Escherichia coli M15
The data set is described as follows: RNase H assay, point-mutant K451A RT. It counts as biochemical. How it is done:
as §4, §5, §3

The target of data set [9] is T6, K540A HIV-1 RT RNase H (Human immunodeficiency virus type 1 group M subtype B, UniProt P03366, K1139A).
T6 construct: Amino acid substitutions were introduced into the p66 HIV-1 RT subunit of a HIV-1 RT; His; made in house; host or cells: Escherichia coli M15
In words: RNase H assay, point-mutant K540A RT. In kind it is biochemical. How it is done: as §4, §5, §3

The target in data set [10] is T7, N474A HIV-1 RT RNase H (Human immunodeficiency virus type 1 group M subtype B, UniProt P03366, N1073A).
T7 construct: Amino acid substitutions were introduced into the p66 HIV-1 RT subunit of a HIV-1 RT; His; made in house; host or cells: Escherichia coli M15
In words: RNase H assay, point-mutant N474A RT. In kind it is biochemical. How it is done: as §4, §5, §3

Data set [11] addresses T8, Y501A HIV-1 RT RNase H (Human immunodeficiency virus type 1 group M subtype B, UniProt P03366, Y1100A).
T8 construct: Amino acid substitutions were introduced into the p66 HIV-1 RT subunit of a HIV-1 RT; His; made in house; host or cells: Escherichia coli M15
In words: RNase H assay, point-mutant Y501A RT. In kind it is biochemical. How it is done:
as §4, §5, §3

Data set [12] deals with T9, Q475A HIV-1 RT RNase H (Human immunodeficiency virus type 1 group M subtype B, UniProt P03366, Q1074A).
T9 construct: Amino acid substitutions were introduced into the p66 HIV-1 RT subunit of a HIV-1 RT; His; made in house; host or cells: Escherichia coli M15
The data set is described as follows: RNase H assay, point-mutant Q475A RT. In kind it is biochemical. How it is done:
as §4, §5, §3

[13] abbreviates: CC50 (cytotoxic concentration 50%), 24 h.
Where [14] appears, read: anti-RH activity (IC50 ± SD), HIV-1 RT-associated RNase H activity, dose-response curves, no preincubation.
The mark [15] stands for this setting: Human immunodeficiency virus 1, HeLa-CD4-LTR-β-gal cells, 24 h post infection, read-out: antiviral activity EC50.

Read-outs that look alike come from different tables or passages of the source.

The compound `O=C(/C=C/c1ccc2c(c1)c(=O)c(C(=O)O)cn2Cc1ccc(F)cc1)c1ccccc1` [4k, (E)-1-(4-Fluorobenzyl)-4-oxo-6-(3-oxo-3-phenylprop-1-en-1-yl)-1,4-dihydroquinoline-3 carboxylic Acid] showed a CC50 at 24 h in data set [1] (setting [13]) of 17 ± 4 µM. Moreover, the IC50 in [2] (setting [14]) was 5.9 ± 0.6 µM; in [4] it was 3.38 ± 0.42 µM; in [5], greater than 100 µM. The “SI (selectivity index = CC50/EC50)” value in data set [3] is given as 3.1. Further, in data set [3] (setting [15]), the EC50 amounted to 5.4 ± 3.1 µM.
In data set [1] (setting [13]), `O=C(O)c1cn(Cc2ccc(F)cc2)c2ccc(OCc3ccccc3)cc2c1=O` [4l, 6-(Benzyloxy)-1-(4-fluorobenzyl)-4-oxo-1,4-dihydroquinoline-3-carboxylic Acid] displayed a CC50 at 24 h greater than 100 µM. The IC50 came to 34 ± 0.1 µM in data set [2] (setting [14]), 0.41 ± 0.03 µM in [4] and 38.5 ± 7.1 µM in data set [5]. In addition, in [3], the “SI (selectivity index = CC50/EC50)” value is on record as greater than 8.6. The EC50 came to 11.7 ± 2.5 µM in [3] (setting [15]) and 11.7 ± 2.15 µM in [3] (Human immunodeficiency virus 1, supplement CSV, read-out: EC50).
For the compound `O=C(O)c1cn(Cc2ccc(F)cc2)c2ccc(OCc3cccc(Cl)c3Cl)cc2c1=O` [4m, 6-((2,3-Dichlorobenzyl)oxy)-1-(4-fluorobenzyl)-4-oxo-1,4-dihydroquinoline-3-carboxylic Acid], the CC50 at 24 h was greater than 200 µM in data set [1] (setting [13]) and greater than 50 µM in [1] (supplement CSV, read-out: CC50). In addition, the IC50 in data set [2] (setting [14]) was 8.19 ± 0.05 µM; in data set [4] it was greater than 100 µM; in [5], 5.6 ± 0.6 µM. The “SI (selectivity index = CC50/EC50)” value in [3] was greater than 15. Further, the concentration for a half-maximal effect (EC50) in data set [3] (setting [15]) amounted to 13.3 ± 4.5 µM.
For `O=C(O)c1cn(Cc2ccc(F)cc2)c2ccc(OCc3ccc(Cl)c(Cl)c3)cc2c1=O` [4n, 6-((3,4-Dichlorobenzyl)oxy)-1-(4-fluorobenzyl)-4-oxo-1,4-dihydroquinoline-3-carboxylic Acid], the CC50 at 24 h in data set [1] (setting [13]) was greater than 200 µM; in data set [1] (supplement CSV, read-out: CC50) it was greater than 50 µM. Moreover, the IC50 in data set [2] (RH IC50 (uM), supplement CSV) was 29.5 ± 0.55 µM; in [2] (setting [14]), 29.5 ± 0.5 µM; in data set [4], 3.25 ± 0.85 µM; in [5], 2 ± 0.8 µM. Further, the “SI (selectivity index = CC50/EC50)” value in data set [3] is recorded as greater than 12.4. Besides, in [3] (setting [15]), the EC50 stood at 16.1 ± 5.5 µM.
`O=C(O)c1cn(Cc2ccc(F)cc2)c2ccc(OCc3cccc4ccccc34)cc2c1=O` [4o, 1-(4-Fluorobenzyl)-6-(naphthalen-1-ylmethoxy)-4-oxo-1,4-dihydroquinoline-3-carboxylic Acid]: in data set [1] (setting [13]), half-maximal cytotoxicity (CC50 at 24 h) was put at 51 ± 11 µM. Moreover, the IC50 was greater than 100 µM in data set [6]; 19.6 ± 1.24 µM in [7]; 1.51 ± 0.21 µM in data set [2] (setting [14]); 5.2 ± 1.1 µM in data set [2] (wt (RH IC50, uM), supplement CSV, mutagenesis study); 11.8 ± 1.2 µM in [8]; 31.6 ± 1.2 µM in data set [9]. The IC50 in data set [10] is 85.8 ± 1.6 µM; in data set [4], greater than 100 µM; in data set [11], greater than 100 µM; in [12], greater than 100 µM; in [5], 11.4 ± 2.6 µM. Also, the EC50 in [3] (Human immunodeficiency virus 1, 24 h, read-out: antiviral activity EC50) came out at 8.4 ± 0.7 µM.
For the compound `O=C(O)c1cn(Cc2ccc(F)cc2)c2ccc(OCc3ccc4c(c3)OCO4)cc2c1=O` [4q, 6-(Benzo[d][1,3]dioxol-5-ylmethoxy)-1-(4-fluorobenzyl)-4-oxo-1,4-dihydroquinoline-3-carboxylic Acid], the CC50 at 24 h in data set [1] (setting [13]) is greater than 200 µM; in [1] (supplement CSV, read-out: CC50), greater than 50 µM. Besides, the IC50 is 13.5 µM in data set [2] (setting [14]), greater than 100 µM in data set [4] and 5.1 ± 1.8 µM in [5]. Besides, the “SI (selectivity index = CC50/EC50)” value in [3] is greater than 17.7. Also, the EC50 in data set [3] (setting [15]) amounted to 11.3 ± 3.5 µM.
